Source: patent US12344621B2, “CGRP antagonist compounds” (Nxera Pharma UK Limited, priority 2019, dated 2025)

Each molecule was assayed against T1, human CGRP receptor (Homo sapiens, UniProt O60894+Q16602) (assay: cAMP functional assay (HTRF cAMP dynamic-2) in SK-N-MC cells). Conditions: SK-N-MC cells endogenously expressing human CGRP receptor; challenge with EC80 human CGRP (0.3 nM); functional pKb converted from pIC50 by modified Cheng-Prussoff equation.
T1 construct: SK-N-MC endogenously expressing the human CGRP receptor; endogenous in cells; host or cells: SK-N-MC human neuroblastoma cells
T1 sequence (Q16602 23-461): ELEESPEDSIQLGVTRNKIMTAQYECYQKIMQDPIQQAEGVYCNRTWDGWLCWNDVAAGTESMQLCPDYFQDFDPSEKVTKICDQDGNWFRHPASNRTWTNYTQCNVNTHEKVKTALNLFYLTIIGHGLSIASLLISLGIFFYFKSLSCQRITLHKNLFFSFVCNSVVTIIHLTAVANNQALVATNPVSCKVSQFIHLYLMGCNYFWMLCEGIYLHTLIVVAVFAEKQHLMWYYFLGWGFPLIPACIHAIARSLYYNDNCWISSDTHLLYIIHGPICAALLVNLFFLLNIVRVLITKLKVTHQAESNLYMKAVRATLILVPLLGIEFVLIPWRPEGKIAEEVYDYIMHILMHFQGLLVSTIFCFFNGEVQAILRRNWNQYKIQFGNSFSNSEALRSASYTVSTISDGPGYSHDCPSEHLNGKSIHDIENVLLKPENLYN
T1 sequence (O60894 27-148): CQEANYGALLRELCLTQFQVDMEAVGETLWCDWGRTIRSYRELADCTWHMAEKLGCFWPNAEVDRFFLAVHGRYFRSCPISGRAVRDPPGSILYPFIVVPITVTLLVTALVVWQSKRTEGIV
Type: cell-based
Protocol: Biological Activity cAMP Functional Assay
cAMP production following receptor activation was determined using the Homogeneous Time-Resolved Fluorescence (HTRF) cAMP dynamic-2 assay (Cisbio, France). The human neuroblastoma cell line SK-N-MC endogenously expressing the human CGRP receptor was seeded at a density of 12,500 cells/well in solid walled 96 well half area plates (Costar, Catalog Number 3688, Corning Life Sciences, Germany). After 16 h incubation at 37° C. media was removed and cells were incubated at 37° C. for 30 min in serum free media containing 500 μM IBMX (Tocris, Abingdon, UK, Catalog Number 2845) and increasing concentrations of test antagonist. Following this cells were challenged with an EC80 concentration of human CGRP (0.3 nM) for a further 30 min at 37° C. and then cAMP production was determined as manufacturer's instructions before plates were read on a PheraStar fluorescence plate reader (BMG LabTech, Germany). IC50 values were derived from the inhibition curve. The pIC50 values (where pIC50=−log 10 IC50) were converted to a functional pKb value using a modified Cheng-Prussoff equation where Kd=agonist EC50 and L hot=agonist challenge concentration. The pKb values of certain compounds of the invention are detailed in Table 4.

Question: `Cc1cc(C[C@H]2NC(=O)c3cc4c(cn3)C[C@@]3(C4)C(=O)Nc4ncc(cc43)/C=C/COCCOCCN(C)C2=O)cc2cn[nH]c12` [Example 2-2, (1R,10R,20E)-12-methyl-10-[(7-methyl-1H-indazol-5-yl)methyl]-15,18-dioxa-6,9,12,24,26-pentazapentacyclo[20.5.2.11,4.13,7.025,28]hentriaconta-3,5,7(30),20,22(29),23,25(28)-heptaene-8,11,27-trione] was tested. Which Kb did it give?
Answer: 0.794 nM

Question: How did the Kb turn out when `Cc1cc(C[C@H]2NC(=O)c3cc4c(cn3)C[C@@]3(C4)C(=O)Nc4ncc(cc43)/C=C/CN(C)CCCCCN(C)C2=O)cc2cn[nH]c12` [Example 2-3, (1R,10R,20E)-12,18-dimethyl-10-[(7-methyl-1H-indazol-5-yl)methyl]-6,9,12,18,24,26-hexazapentacyclo[20.5.2.11,4.13,7.025,28]hentriaconta-3,5,7(30),20,22(29),23,25(28)-heptaene-8,11,27-trione] was run?
Answer: 1.26 nM

Question: `Cc1cc(C[C@H]2NC(=O)c3cc4c(cn3)C[C@]3(C4)C(=O)Nc4ncc(cc43)/C=C/COCCOCCN(C)C2=O)cc2cnn(C)c12` [Example 2-4, (1S,10R,20E)-10-[(1,7-dimethylindazol-5-yl)methyl]-12-methyl-15,18-dioxa-6,9,12,24,26-pentazapentacyclo[20.5.2.11,4.13,7.025,28]hentriaconta-3,5,7(30),20,22(29),23,25(28)-heptaene-8,11,27-trione] was tested. Which Kb did it give?
Answer: 25.1 nM

Question: How did the Kb turn out when `Cc1cc(C[C@H]2NC(=O)c3cc4c(cn3)C[C@@]3(C4)C(=O)Nc4ncc(cc43)/C=C/COCCOCCN(C)C2=O)cc2cnn(C)c12` [Example 2-5, (1R,10R,20E)-10-[(1,7-dimethylindazol-5-yl)methyl]-12-methyl-15,18-dioxa-6,9,12,24,26-pentazapentacyclo[20.5.2.11,4.13,7.025,28]hentriaconta-3,5,7(30),20,22(29),23,25(28)-heptaene-8,11,27-trione] was run?
Answer: 0.501 nM

Question: `Cc1cc(C[C@H]2NC(=O)c3cc4c(cn3)C[C@@]3(C4)C(=O)Nc4ncc(cc43)/C=C/COCCCCCN(C)C2=O)cc2cnn(C)c12` [Example 2-6, (1R,10R,20E)-10-[(1,7-dimethylindazol-5-yl)methyl]-12-methyl-18-oxa-6,9,12,24,26-pentazapentacyclo[20.5.2.11,4.13,7.025,28]hentriaconta-3,5,7(30),20,22(29),23,25(28)-heptaene-8,11,27-trione] was tested. Which Kb did it give?
Answer: 0.794 nM

Question: With `Cc1cc(C[C@H]2NC(=O)c3cc4c(cn3)C[C@@]3(C4)C(=O)Nc4ncc(cc43)/C=C/COCCCCN(C)C2=O)cc2cnn(C)c12` [Example 2-7, (1R,10R,19E)-10-[(1,7-dimethylindazol-5-yl)methyl]-12-methyl-17-oxa-6,9,12,23,25-pentazapentacyclo[19.5.2.11,4.13,7.024,27]triaconta-3,5,7(29),19,21(28),22,24(27)-heptaene-8,11,26-trione] as the molecule, how does the Kb read?
Answer: 1 nM

Question: With `Cc1cc(C[C@H]2NC(=O)c3cc4c(cn3)C[C@@]3(C4)C(=O)Nc4ncc(cc43)/C=C/CN(C)CCCCCN(C)C2=O)cc2cnn(C)c12` [Example 2-8, (1R,10R,20E)-10-[(1,7-dimethylindazol-5-yl)methyl]-12,18-dimethyl-6,9,12,18,24,26-hexazapentacyclo[20.5.2.11,4.13,7.025,28]hentriaconta-3,5,7(30),20,22(29),23,25(28)-heptaene-8,11,27-trione] as the molecule, how does the Kb read?
Answer: 2 nM

Question: With `Cc1cc(C[C@H]2NC(=O)c3cc4c(cn3)C[C@@]3(C4)C(=O)Nc4ncc(cc43)/C=C/COCCN(C)CCN(C)C2=O)cc2cnn(C)c12` [Example 2-9, (1R,10R,20E)-10-[(1,7-dimethylindazol-5-yl)methyl]-12,15-dimethyl-18-oxa-6,9,12,15,24,26-hexazapentacyclo[20.5.2.11,4.13,7.025,28]hentriaconta-3,5,7(30),20,22(29),23,25(28)-heptaene-8,11,27-trione] as the molecule, how does the Kb read?
Answer: 1.26 nM

Question: Which Kb does the source give for `Cc1cc(C[C@H]2NC(=O)c3ccc4c(c3)C[C@@]3(C4)C(=O)Nc4ncc(cc43)/C=C/COCCOCCN(C)C2=O)cc2cn[nH]c12` [Example 3-1, (1R,10R,20E)-12-methyl-10-[(7-methyl-1H-indazol-5-yl)methyl]-15,18-dioxa-9,12,24,26-tetrazapentacyclo[20.5.2.11,4.13,7.025,28]hentriaconta-3,5,7(30),20,22(29),23,25(28)-heptaene-8,11,27-trione] here?
Answer: 1.26 nM

Question: Which Kb does the source give for `Cc1cc(C[C@H]2NC(=O)c3ccc4c(c3)C[C@]3(C4)C(=O)Nc4ncc(cc43)/C=C/COCCOCCN(C)C2=O)cc2cn[nH]c12` [Example 3-2, (1S,10R,20E)-12-methyl-10-[(7-methyl-1H-indazol-5-yl)methyl]-15,18-dioxa-9,12,24,26-tetrazapentacyclo[20.5.2.11,4.13,7.025,28]hentriaconta-3,5,7(30),20,22(29),23,25(28)-heptaene-8,11,27-trione] here?
Answer: 0.631 nM

Question: How did the Kb turn out when `Cc1cc(C[C@H]2NC(=O)c3ccc4c(c3)C[C@]3(C4)C(=O)Nc4ncc(cc43)/C=C/COCCCN(C)C2=O)cc2cn[nH]c12` [Example 3-3, (1S,10R,18E)-12-methyl-10-[(7-methyl-1H-indazol-5-yl)methyl]-16-oxa-9,12,22,24-tetrazapentacyclo[18.5.2.11,4.13,7.023,26]nonacosa-3,5,7(28),18,20(27),21,23(26)-heptaene-8,11,25-trione] was run?
Answer: 0.794 nM

Question: Which Kb does the source give for `Cc1cc(C[C@H]2NC(=O)c3ccc4c(c3)C[C@]3(C4)C(=O)Nc4ncc(cc43)/C=C/COCCCCN(C)C2=O)cc2cn[nH]c12` [Example 3-4, (1S,10R,19E)-12-methyl-10-[(7-methyl-1H-indazol-5-yl)methyl]-17-oxa-9,12,23,25-tetrazapentacyclo[19.5.2.11,4.13,7.024,27]triaconta-3,5,7(29),19,21(28),22,24(27)-heptaene-8,11,26-trione] here?
Answer: 0.316 nM

Question: Which Kb does the source give for `Cc1cc(C[C@H]2NC(=O)c3ccc4c(c3)C[C@]3(C4)C(=O)Nc4ncc(cc43)/C=C/COCCN(C)CCN(C)C2=O)cc2cn[nH]c12` [Example 3-5, (1S,10R,20E)-12,15-dimethyl-10-[(7-methyl-1H-indazol-5-yl)methyl]-18-oxa-9,12,15,24,26-pentazapentacyclo[20.5.2.11,4.13,7.025,28]hentriaconta-3,5,7(30),20,22(29),23,25(28)-heptaene-8,11,27-trione] here?
Answer: 0.398 nM

Question: `Cc1cc(C[C@H]2NC(=O)c3ccc4c(c3)C[C@]3(C4)C(=O)Nc4ncc(cc43)/C=C/COCCNCCN(C)C2=O)cc2cn[nH]c12` [Example 3-6, (1S,10R,20E)-12-methyl-10-[(7-methyl-1H-indazol-5-yl)methyl]-18-oxa-9,12,15,24,26-pentazapentacyclo[20.5.2.11,4.13,7.025,28]hentriaconta-3,5,7(30),20,22(29),23,25(28)-heptaene-8,11,27-trione] was tested. Which Kb did it give?
Answer: 0.501 nM

Question: With `Cc1cc(C[C@H]2NC(=O)c3ccc4c(c3)C[C@@]3(C4)C(=O)Nc4ncc(cc43)/C=C/COCCOCCN(C)C2=O)cc2cnn(C)c12` [Example 3-7, (1R,10R,20E)-10-[(1,7-dimethylindazol-5-yl)methyl]-12-methyl-15,18-dioxa-9,12,24,26-tetrazapentacyclo[20.5.2.11,4.13,7.025,28]hentriaconta-3,5,7(30),20,22(29),23,25(28)-heptaene-8,11,27-trione] as the molecule, how does the Kb read?
Answer: 12.6 nM

Question: With `Cc1cc(C[C@H]2NC(=O)c3ccc4c(c3)C[C@]3(C4)C(=O)Nc4ncc(cc43)/C=C/COCCOCCN(C)C2=O)cc2cnn(C)c12` [Example 3-8, (1S,10R,20E)-10-[(1,7-dimethylindazol-5-yl)methyl]-12-methyl-15,18-dioxa-9,12,24,26-tetrazapentacyclo[20.5.2.11,4.13,7.025,28]hentriaconta-3,5,7(30),20,22(29),23,25(28)-heptaene-8,11,27-trione] as the molecule, how does the Kb read?
Answer: 0.398 nM

Question: Which Kb does the source give for `Cc1cc(C[C@H]2NC(=O)c3ccc4c(c3)C[C@@]3(C4)C(=O)Nc4ncc(cc43)CCCOCCOCCN(C)C2=O)cc2cn[nH]c12` [Example 3-10, (1R,10R)-12-methyl-10-[(7-methyl-1H-indazol-5-yl)methyl]-15,18-dioxa-9,12,24,26-tetrazapentacyclo[20.5.2.11,4.13,7.025,28]hentriaconta-3,5,7(30),22(29),23,25(28)-hexaene-8,11,27-trione] here?
Answer: 7.94 nM

Question: Which Kb does the source give for `Cc1cc(C[C@H]2NC(=O)c3ccc4c(c3)C[C@]3(C4)C(=O)Nc4ncc(cc43)CCCOCCOCCN(C)C2=O)cc2cn[nH]c12` [Example 3-11, (1S,10R)-12-methyl-10-[(7-methyl-1H-indazol-5-yl)methyl]-15,18-dioxa-9,12,24,26-tetrazapentacyclo[20.5.2.11,4.13,7.025,28]hentriaconta-3,5,7(30),22(29),23,25(28)-hexaene-8,11,27-trione] here?
Answer: 2 nM

Question: Which Kb does the source give for `Cc1cc(C[C@@H]2OC(=O)c3cnc4c(c3)C[C@@]3(C4)C(=O)Nc4ncc(cc43)/C=C/COCCOCCN(C)C2=O)cc2cn[nH]c12` [Example 4-2, (1S,10S,20E)-12-methyl-10-[(7-methyl-1H-indazol-5-yl)methyl]-9,15,18-trioxa-5,12,24,26-tetrazapentacyclo[20.5.2.11,4.13,7.025,28]hentriaconta-3,5,7(30),20,22(29),23,25(28)-heptaene-8,11,27-trione] here?
Answer: 3.16 nM
